What is called IC50 is the concentration that inhibits the measured activity by half. The term GI50 denotes the concentration giving 50% growth inhibition. High values mean lower sensitivity of the cells, low ones greater sensitivity of the cells.

Assay [1] concerns K562 (chronic myelogenous leukemia; leukemia cell line +ve for Bcr-Abl). Description: Cytotoxicity assay, K562 tumor cells. Type of assay: cell-based. The settings on record: Homo sapiens. The protocol:
(§1) The effect of the compounds of the invention on tumor cells was determined by the assay described by Latham et al., Oncogene 12:827-837 (1996). Tumor cells K562 (chronic myelogenous leukemia; leukemia cell line +ve for Bcr-Abl) or DU145 (prostate cancer) were plated in 12-well dishes at a cell density of 2.5×10^4 cells well. The plated cells were treated 24 hours later with a compound of the invention dissolved in DMSO at multiple concentrations ranging from 0.01 μM to 100 μM. The plates were examined 96 hours later under an inverted microscope, Olympus CK-2 using a 10× objective, and compound activity was noted by physical observation. When necessary, the total number of viable cells was determined by trypsinizing the wells and counting the number of viable cells, as determined by trypan blue exclusion, using a hemacytometer. Where “Lower” and “Upper” value are provided in Table 5, the IC50 was determined to be within that range. When only a “Lower” value is provided and no “Upper” value is listed, the IC50 was that value, or less than or greater than that value, as set forth in the Table.
(§2) The cytotoxicity of Compound 42, (Z)-6-((2,6-dichlorobenzyl)sulfonyl)-2-(4-hydroxy-3-nitrobenzylidene)-2H-benzo[b][1,4]thiazin-3(4H)-one, was determined according the assay method of Example 7 on the prostate (androgen dependent or independent), breast and pancreatic cancer cell lines listed in Table 6A, below, and the additional cell lines listed in Table 6B, below. The human mesenchymal stem cell line HMSC.hTERT and normal human fibroblast cell line HFL was included in the test.

In the next assay the test system is DU145 (prostate cancer). Description: Cytotoxicity assay, DU145 tumor cells. Type of assay: cell-based. The settings on record: Homo sapiens. The protocol:
as §1, §2

Another assay has as its system LnCap. As to the kind of experiment: Cancer cell cytotoxicity assay, LnCap. Format: cell-based. The settings on record: Homo sapiens, Prostate Cancer (Androgen Dependent). The protocol:
(§3) The effect of the compounds of the invention on tumor cells was determined by the assay described by Latham et al., Oncogene 12:827-837 (1996). Tumor cells K562 (chronic myelogenous leukemia; leukemia cell line +ve for Bcr-Abl) or DU145 (prostate cancer) were plated in 12-well dishes at a cell density of 2.5×10^4 cells well. The plated cells were treated 24 hours later with a compound of the invention dissolved in DMSO at multiple concentrations ranging from 0.01 μM to 100 μM. The plates were examined 96 hours later under an inverted microscope, Olympus CK-2 using a 10× objective, and compound activity was noted by physical observation. When necessary, the total number of viable cells was determined by trypsinizing the wells and counting the number of viable cells, as determined by trypan blue exclusion, using a hemacytometer. Where “Lower” and “Upper” value are provided in Table 5, the IC50 was determined to be within that range. […]
(§4) The cytotoxicity of Compound 42, (Z)-6-((2,6-dichlorobenzyl)sulfonyl)-2-(4-hydroxy-3-nitrobenzylidene)-2H-benzo[b][1,4]thiazin-3(4H)-one, was determined according the assay method of Example 7 on the prostate (androgen dependent or independent), breast and pancreatic cancer cell lines listed in Table 6A, below, and the additional cell lines listed in Table 6B, below. […]

Another assay relates to BT-474. As to the kind of experiment: Cancer cell cytotoxicity assay, BT-474. Format: cell-based. Conditions: Homo sapiens; BT-474, Breast Cancer. The protocol: as §3, §4
In another assay the test system is MCF-7. As to the kind of experiment: Cancer cell cytotoxicity assay, MCF-7. Format: cell-based. Conditions: Homo sapiens, MCF7; MCF-7, Breast Cancer. The method, then:
as §3, §4

The test system of a further assay is RPWE-1. Description: Cancer cell cytotoxicity assay, RPWE-1. Format: cell-based. The settings on record: RPWE-1, Normal prostate epithelium. The method, then: as §3, §4
The next assay has as its system A549. As to the kind of experiment: Cancer cell cytotoxicity assay, A549. Format: cell-based. Conditions: Homo sapiens; A549, Non-small cell lung cancer. The method, then:
as §3, §4

In another assay the test system is HCT-116. As to the kind of experiment: Cancer cell cytotoxicity assay, HCT-116. Format: cell-based. The settings on record: Homo sapiens; HCT-116, Colon cancer. The protocol: as §3, §4
The next assay relates to GRANTA. As to the kind of experiment: Cancer cell cytotoxicity assay, GRANTA. Conditions: Mantle cell lymphoma. Type of assay: cell-based. The method, then: as §3, §4
For a further assay, the target named is T1, CK2α2 (Homo sapiens, UniProt P19784).
T1 construct: CK2α2 (human full length protein; Invitrogen PV3624); purchased Invitrogen PV3624
Description: Casein kinase 2 inhibition, CK2α2 subunit (32P-ATP kinase assay). Type of assay: biochemical. The settings on record: 20 μM cold ATP; 30 min preincubation, 20 min at 30° C. The protocol: The ability of Compound 42 to inhibit the activity of casein kinase 2 (CK2) was determined as follows using the catalytic CK2 subunits CK2α and CK2α2. Two and one half nanograms of CK2α (human full length protein; Invitrogen PV3248), 2.5 ng of a CK2α form containing amino acids 3-339) or 10 ng of CK2α2 (human full length protein; Invitrogen PV3624) was diluted into kinase buffer (20 mM Tris pH 7.5, 10 mM MgCl2, 0.01% NP-40, 1 mM EGTA, 2 mM DTT) and incubated with varying concentrations of Compound 42 at room temperature for 30 minutes. Kinase reactions were initiated by the addition of 1 μg of CK2 substrate α-synuclein or 40 μM CK2 synthetic peptide substrate (AnaSpec, San Jose, Calif.), 20 μM cold ATP, and 20 μCi γ-^32P-ATP. The reactions were incubated at 30° C. for 20 minutes, terminated by the addition of 2× Laemmle sample buffer, boiled for 2 minutes, resolved by 12% acrylamide SDS-PAGE, and subjected to autoradiography.

T1 sequence (P19784 whole entry): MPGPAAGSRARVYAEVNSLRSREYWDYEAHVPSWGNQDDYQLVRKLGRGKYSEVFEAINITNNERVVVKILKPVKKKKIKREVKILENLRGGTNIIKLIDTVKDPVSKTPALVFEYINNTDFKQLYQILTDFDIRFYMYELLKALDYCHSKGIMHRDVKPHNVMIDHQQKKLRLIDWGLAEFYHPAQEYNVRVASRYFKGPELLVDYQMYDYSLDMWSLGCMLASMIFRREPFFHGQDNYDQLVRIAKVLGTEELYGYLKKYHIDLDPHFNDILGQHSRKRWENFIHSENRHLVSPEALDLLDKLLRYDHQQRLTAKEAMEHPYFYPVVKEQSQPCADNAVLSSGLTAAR

As to `O=C1Nc2cc(S(=O)(=O)Cc3c(Cl)cccc3Cl)ccc2S/C1=C\c1ccc(O)c([N+](=O)[O-])c1` [Compound 42, (Z)-6-((2,6-dichlorobenzyl)sulfonyl)-2-(4-hydroxy-3-nitrobenzylidene)-2H-benzo[b][1,4]thiazin-3(4H)-one], the IC50 in assay [1] (K562, 96 h treatment, lower limit of the IC50 range, or the IC50 itself (or its bound) where no Upper value is listed, read-out: K562 IC50 (μm) Lower (μm)) stood at 0.1 µM; in the assay on DU145 (prostate cancer) (DU-145, 96 h treatment, lower limit of the IC50 range, or the IC50 itself (or its bound) where no Upper value is listed, read-out: DU145 IC50 (μm) Lower (μm)), 0.15 µM; against CK2α2, 0.0831 µM. The GI50 turned out to be 0.16 µM in [1] (K562, Chronic myelogenous leukemia); 0.16 µM with DU145 (prostate cancer) (DU-145, Prostate Cancer (Androgen Independent)); 0.25 µM in the assay on LnCap; 0.2 µM in the assay on BT-474; 1 µM in the assay on MCF-7; 0.1 µM in the assay on RPWE-1. Further, the 50% growth inhibitory concentration (GI50) in the assay with A549 came out at 0.16 µM; with HCT-116, 0.15 µM; in the assay with GRANTA it was 0.08 µM.
